Patent publication US11850283B2, “Liponucleotide-based therapy for asthma” (priority 2017, dated 2023)
Entries after “also recorded” stand apart in the source; their conditions may differ. Marks after values point to notes of the source that are not given here.

Tests used:
[1] = test system: mouse model of asthma (dust mite/ragweed/Aspergillus fumigatus [DRA] triple antigen exposure); test: BALF total and differential cell counts in DRA mouse model of asthma; type: in vivo, BALB/c mice
Method: (§1) To experimentally determine the efficacy of the liponucleotides (lipoNTs) CDP-choline (CDP-CHO), CDP-ethanolamine (CDP-ETH), and CDP-diacylglycerol 16:0/16:0 (CDP-DAG) as therapeutics in a mouse model of asthma (dust mite/ragweed/Aspergillus fumigatus [DRA] triple antigen exposure) (Chung S, et al. Oncotarget 2016 7:17532-17546).
(§2) To induce asthma, adult female BALB/c mice (n=4-5 per group) were sensitized with 50 μl alum+50 μl sterile saline containing dust mite allergen (5 μg/mouse)+ragweed allergen (5 μg/mouse)+Aspergillus allergen (5 μg/mouse) by i.p. injection on days 0 and 5. Mice were then challenged intranasally with dust mite allergen (8.3 μg/mouse)+ragweed allergen ([…])+Aspergillus allergen (8.3 μg/mouse) in 30 μl saline on days 12, 13, and 14, under isoflurane anesthesia. LipoNTs were administered daily by the intraperitoneal route in 50 μl sterile saline.
(§3) Data were collected 15 days after first exposure to DRA in terminal experiments.
Following flexiVent analysis, bronchoalveolar lavage was performed on all mice using 0.8 ml PBS. BALF total and differential cell counts (trypan-blue stained live cells and Giemsa-stained cytospins, respectively) were performed on cell pellets to assess inflammatory cell infiltrates. BALF eosinophil (EO), alveolar macrophage (AM), and neutrophil (PMN) counts were determined.

[2] = test system: ATII cells from influenza A/WSN/33 (H1N1)-infected mice; test: Effect of influenza infection and CDP-CHO treatment on ATII cell ultrastructure; type: in vivo, mouse
Text: FIG. 14 is a group of three transmission electron micrographs showing effects of CDP-CHO treatment on ultrastructure of ATII cell lamellar bodies (composed of surfactant lipids and proteins). Relative to mock-infected controls, lamellar bodies in ATII cells from influenza A/WSN/33 (H1N1)-infected mice are smaller and have disordered lamellae.
FIG. 15 is a group of 3 transmission electron micrographs showing effects of influenza infection on ultrastructure of ATII cell mitochondria (Mi). Relative to mock-infected controls (left), Mi in ATII cells from A/WSN/33 (H1N1)-infected mice (center) are fewer in number, less electron dense, and have disordered membranes and cristae.

influenza-infected mice = test: Effect of influenza infection and CDP-CHO treatment on lung inflammation; type: in vivo; conditions: day 6; 100 μg/mouse i.p., daily from 1-5 days post-infection
[3] = test system: mouse model of asthma (dust mite/ragweed/Aspergillus fumigatus [DRA] triple antigen exposure); test: Airway hyperresponsiveness to methacholine (flexiVent) in DRA mouse model of asthma; type: in vivo, BALB/c mice
Method: as §1, §2, §3
Airway hyperresponsiveness (AHR) was measured by the forced-oscillation method using the SciReq flexiVent computer-controlled mechanical ventilator. […] Airway resistance at each methacholine dose was quantified by the single-compartment model. […]

[4] = test system: mitochondria, influenza-infected mice; test: Effect of influenza infection and CDP-CHO treatment on mitochondrial function; type: in vivo; conditions: day 6; 100 μg/mouse i.p., daily from 1-5 days post-infection
[5] = test system: mouse model of asthma (dust mite/ragweed/Aspergillus fumigatus [DRA] triple antigen exposure); test: BALF cytokine and chemokine content by ELISA in DRA mouse model of asthma; type: in vivo, BALB/c mice; conditions: treatment days 1-14 i.p. daily, mean ± SEM
Method: as §1, §2, §3
BAL supernatant fluid was stored at −20° C. for subsequent measurement of cytokine and/or chemokine content by ELISA using commercially available kits in accordance with manufacturers' instructions.

[6] = test system: influenza A/WSN/33 (H1N1)-infected mice; test: Effect of influenza infection and i.p. liponucleotide treatment on lung function; type: in vivo, mouse; conditions: for CST / HR (bpm) / RBASAL / SaO2 (%) / WET:DRY: day 6
Text: SaO2 increased from approximately 85% to approximately 96%. This is equivalent to an increase in PaO2 from approximately 65 mmHg to approximately 85 mmHg. It is also equivalent to an increase in O2 carrying capacity of blood (CaO2) from approximately 88% to approximately 97% of normal. Patients with an SaO2 of 96% or a […] would not require additional treatment

[7] = treatment days 1-14, result in words
[8] = treatment days 1-14 i.p. daily, day 15, mean ± SEM
[9] = ATII cells of infected mice, result in words
[10] = day 6, 100 μg/mouse i.p., daily from 1-5 days post-infection
[11] = 100 μg/mouse i.p. on day 5 only
[12] = i.p. daily from 1-5 days post-infection, CDP-CHO 100 μg/mouse, CDP-DAG 10 μg/mouse
[13] = i.p. daily from 1-5 days post-infection, CDP-CHO and CDP-ETH 100 μg/mouse, CDP-DAG 10 μg/mouse

Molecule: C[N+](C)(C)CCO[P@TB16](=O)(O)O[P@TB16](=O)(O)OC[C@H]1O[C@@H](n2ccc(N)nc2=O)[C@H](O)[C@@H]1O [CDP-CHO, CDP-choline]
- anti-inflammatory effect (BALF leukocyte counts) [1, 7]: decreases BALF EO and AM counts
- BALF AMs (×10^6) [1, 8]: 0.14 ± 0.03 ×10^6
- BALF EOs (×10^6) [1, 8]: 0.26 ± 0.03 ×10^6
- BALF PMNs (×10^6) [1, 8]: 0.1 ± 0.03 ×10^6
- ATII cell mitochondria (Mi) morphology (transmission electron micrographs) [2, 9]: more electron-dense and have more normal cristae; also recorded: display normal morphology
- lamellar body morphology (transmission electron micrographs) [2, 9]: improves lamellar body morphology
- ATII CELL AREA (μm^2) [2, 10]: 53.64 ± 5.63* μm^2
- LAMELLAR BODIES/CELL [2, 10]: 8.1 ± 1.16
- LAMELLAR BODY AREA (μm^2) [2, 10]: 0.41 ± 0.04* μm^2
- MITOCHONDRIAL/CELL [2, 10]: 14.5 ± 1.78
- MIT[…] (μm^2) [2, 10]: 0.34 ± 0.01* μm^2
- BALF ALVEOLAR MACS (×10^6/ml) (influenza-infected mice): 1.08 ± 0.21 ×10^6/ml
- BALF NEUTROPHILS (×10^6/ml) (influenza-infected mice): 0.45 ± 0.07 ×10^6/ml
- BALF PC (influenza-infected mice): 1.61 ± 0.45
- VIRAL TITER (log PFU/g) (influenza-infected mice): 5.32 ± 0.07 log PFU/g
- DRA-induced AHR [3, 7]: does not attenuate
- RMAX (cmH2O · s/ml) ([3]; treatment days 1-14 i.p. daily, CDP-CHO, CDP-ETH 5 mg/kg, CDP-DAG 0.5 mg/kg, peak airway resistance at 50 mg/ml methacholine, day 15, mean ± SEM): 2.65 ± 0.06 cmH2O · s/ml
- MITOCHONDRIAL MEMBRANE POTENTIAL (ψm; DilC1(5) MCF) [4]: 10.14 ± 2.3
- MIT[…] PRODUCTION [4]: 36.91 ± 6.82
- CCL-11 (pg/ml), also known as eotaxin-1 [5]: 18 ± 8 pg/mL
- IL-5 [5]: 16 ± 5 pg/mL
- IL-17 [5]: 5 ± 1 pg/mL
- CST [6, 11]: 0.05 ± 0.006
- HR (bpm) [6, 11]: 550 ± 10 bpm
- RBASAL [6, 11]: 1.63 ± 0.22
- SaO2 (%) [6, 11]: 92.9 ± 1.5 %
- WET:DRY [6, 11]: 6.2 ± 0.2
- CST [6, 12]: 0.05 ± 0.002
- RBASAL [6, 12]: 1.96 ± 0.12
- HR (bpm) [6, 13]: 570 ± 10 bpm
- SaO2 (%) [6, 13]: 93.5 ± 1.0 %
- WET:DRY [6, 13]: 6.2 ± 0.4
- PaO2 ([6]; equivalent of the SaO2 increase, from approximately 65 mmHg): approximately 85 mmHg
- O2 carrying capacity of blood (CaO2) ([6]; equivalent of the SaO2 increase, from approximately 88%): approximately 97 % of normal
- SaO2 ([6]; infected mice, CDP-CHO treatment, increased from approximately 85%): approximately 96%
- Effects of single dose treatment late in infection compared with daily treatment ([6]; infected mice, result in words): as good as those of daily treatment
- cardiac function ([6]; infected mice, result in words): improved cardiac function
- lung function ([6]; infected mice, result in words): better lung function
- oxygenation ([6]; infected mice, result in words): improved oxygenation
- pulmonary edema ([6]; infected mice, result in words): reduced pulmonary edema

Molecule: NCCO[P@SP3](=O)(O)O[P@SP3](=O)(O)OC[C@H]1O[C@@H](n2ccc(N)nc2=O)[C@H](O)[C@@H]1O [CDP-ETH, CDP-ethanolamine]
- HR (bpm) [6, 13]: 540 ± 20 bpm
- SaO2 (%) [6, 13]: 91.1 ± 1.5%
- WET:DRY [6, 13]: 6.5 ± 0.4

Molecule: CDP-diacylglycerol [CDP-DAG]
- HR (bpm) [6, 13]: 600 ± 10 bpm
- SaO2 (%) [6, 13]: 95.2 ± 1.6 %
- WET:DRY [6, 13]: 5.8 ± 0.1
